In US20220396565A1 (Hoffmann-La Roche Inc., priority 2020, published 2022):
Counter-ions that a name gives are not always drawn.

System: Acinetobacter baumannii ATCC17978
Experiment: Antimicrobial susceptibility testing: 90% growth inhibitory concentration (IC90) determination, Iso-Sensitest broth
Type: cell-based
Conditions: 90% growth inhibitory concentration, Acinetobacter baumannii ATCC17978, Iso-Sensitest broth; read-out: ATCC 17978 IC90
Method in brief: (§1)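 Twofold serial dilutions (e.g. 10 to 0.02 μM final) were tested in Iso-Sensitest broth against ~5×10^(5) CFU/ml at 35±2 °C. OD600 was read every 20 min over 16 h. IC90 was derived from growth inhibition during the logarithmic phase.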

Structure (SMILES) | IC90
CCc1cc(NC(=O)c2ncc(-c3ccc(OC(C)C)c(F)c3)n2C)ccc1C(=O)N1CCN(CCN(C)C)CC1 [Example 276, N-(4-(4-(2-(dimethylamino)ethyl)piperazine-1-carbonyl)-3-ethylphenyl)-5-(3-fluoro-4-isopropoxyphenyl)-1-methyl-1H-imidazole-2-carboxamide] | 4020 nM
COc1ccc(-c2cnc(C(=O)Nc3ccc(C(=O)N4CCC(CN)CC4)c(Cl)c3)n2C)c(F)c1F [Example 16, N-[4-[4-(aminomethyl)piperidine-1-carbonyl]-3-chloro-phenyl]-5-(2,3-difluoro-4-methoxy-phenyl)-1-methyl-imidazole-2-carboxamide trifluoroacetate] | 300 nM
COc1ccc(-c2cnc(C(=O)Nc3ccc(C(=O)N4CCN(C(=O)CN(C)C)CC4)c(Cl)c3)n2C)c(F)c1F [Example 104, N-[3-chloro-4-[4-[2-(dimethylamino)acetyl]piperazine-1-carbonyl]phenyl]-5-(2,3-difluoro-4-methoxy-phenyl)-1-methyl-imidazole-2-carboxamide trifluoroacetate] | 70 nM
Cc1cc(NC(=O)c2ncc(-c3ccc(OCC#N)c(F)c3F)n2C)ccc1C(=O)N1CCN(C(=O)[C@@H]2CCNC2)CC1 [Example 203, (R)-5-(4-(cyanomethoxy)-2,3-difluorophenyl)-1-methyl-N-(3-methyl-4-(4-(pyrrolidine-3-carbonyl)piperazine-1-carbonyl)phenyl)-1H-imidazole-2-carboxamide 2,2,2-trifluoroacetate] | 90 nM
Cn1c(-c2ccc(OCC#N)c(F)c2F)cnc1C(=O)Nc1ccc(C(=O)N2CCN(C(=O)[C@@H]3CCCN3)CC2)c(Cl)c1 [Example 198, (S)-N-(3-chloro-4-(4-prolylpiperazine-1-carbonyl)phenyl)-5-(4-(cyanomethoxy)-2,3-difluorophenyl)-1-methyl-1H-imidazole-2-carboxamide 2,2,2-trifluoroacetate] | 30 nM
COc1ccc(-c2cnc(C(=O)Nc3ccc(C(=O)N4CCC(C(=O)N5CCN[C@@H](CO)C5)CC4)c(Cl)c3)n2C)c(Cl)c1F [Example 116, 5-(2-chloro-3-fluoro-4-methoxy-phenyl)-N-[3-chloro-4-[4-[(3R)-3-(hydroxymethyl)piperazine-1-carbonyl]piperidine-1-carbonyl]phenyl]-1-methyl-imidazole-2-carboxamide] | 130 nM
Cn1c(-c2ccc(OCC#N)c(F)c2F)cnc1C(=O)Nc1ccc(C(=O)N2CCC(C(=O)N3CCSCC3)CC2)c(Cl)c1 [Example 76, N-(3-chloro-4-(4-(thiomorpholine-4-carbonyl)piperidine-1-carbonyl)phenyl)-5-(4-(cyanomethoxy)-2,3-difluorophenyl)-1-methyl-1H-imidazole-2-carboxamide] | 210 nM
CN(C)CC(=O)N1CCN(C(=O)c2ccc(NC(=O)c3ncc(-c4ccc(OCC#N)c(F)c4F)n3C)cc2Cl)CC1 [Example 204, N-(3-chloro-4-(4-(dimethylglycyl)piperazine-1-carbonyl)phenyl)-5-(4-(cyanomethoxy)-2,3-difluorophenyl)-1-methyl-1H-imidazole-2-carboxamide formate] | 40 nM
Cc1cc(NC(=O)c2ncc(-c3ccc(OCC#N)c(F)c3F)n2C)ccc1C(=O)N1CCC(C(=O)N2CCOCC2)CC1 [Example 78, 5-(4-(cyanomethoxy)-2,3-difluorophenyl)-1-methyl-N-(3-methyl-4-(4-(morpholine-4-carbonyl)piperidine-1-carbonyl)phenyl)-1H-imidazole-2-carboxamide] | 120 nM
Cn1c(-c2ccc(OCC#N)c(F)c2F)cnc1C(=O)Nc1ccc(C(=O)N2CCC(C(=O)N3CCS(=O)(=O)CC3)CC2)c(Cl)c1 [Example 75, N-(3-chloro-4-(4-(1,1-dioxidothiomorpholine-4-carbonyl)piperidine-1-carbonyl)phenyl)-5-(4-(cyanomethoxy)-2,3-difluorophenyl)-1-methyl-1H-imidazole-2-carboxamide] | 100 nM
CCc1cc(NC(=O)c2ncc(-c3ccc(OC)cc3Cl)n2C)ccc1C(=O)N1CCN(CCN(C)C)CC1 [Example 277, 5-(2-chloro-4-methoxyphenyl)-N-(4-(4-(2-(dimethylamino)ethyl)piperazine-1-carbonyl)-3-ethylphenyl)-1-methyl-1H-imidazole-2-carboxamide] | 2300 nM
Cn1c(-c2ccc(OCC#N)c(F)c2F)cnc1C(=O)Nc1ccc(C(=O)N2CCC(C(=O)N3CCOC(CN)C3)CC2)c(Cl)c1 (stereo not drawn) [Example 73, N-(4-(4-(2-(aminomethyl)morpholine-4-carbonyl)piperidine-1-carbonyl)-3-chlorophenyl)-5-(4-(cyanomethoxy)-2,3-difluorophenyl)-1-methyl-1H-imidazole-2-carboxamide 2,2,2-trifluoroacetate] | 60 nM

Same assay, conditions: Acinetobacter baumannii, ATCC17978, read-out: ATCC 17978 IC90

Structure (SMILES) | IC90
Cn1c(-c2ccc(OCC#N)c(F)c2F)cnc1C(=O)Nc1ccc(C(=O)N2CCN(C(=O)[C@H]3CCCN3)CC2)c(Cl)c1 [Example 197, (R)-N-(3-chloro-4-(4-prolylpiperazine-1-carbonyl)phenyl)-5-(4-(cyanomethoxy)-2,3-difluorophenyl)-1-methyl 1H-imidazole-2-carboxamide 2,2,2-trifluoroacetate] | 70 nM
Cc1cc(NC(=O)c2ncc(-c3ccc(OCC#N)c(F)c3F)n2C)ccc1C(=O)N1CCC(C(=O)N2CC(N)C2)CC1 [Example 79, N-(4-(4-(3-aminoazetidine-1-carbonyl)piperidine-l-carbonyl)-3-methylphenyl)-5-(4-(cyanomethoxy)-2,3-difluorophenyl)-1-methyl-1H-imidazole-2-carboxamide 2,2,2-trifluoroacetate] | 210 nM

System: Acinetobacter baumannii ATCC17961
Experiment: as above
Type: cell-based
Conditions: Acinetobacter baumannii, ATCC17961, 90% growth inhibitory concentration, Acinetobacter baumannii ATCC17961, Iso-Sensitest broth; read-out: ATCC 17961 IC90
Method in brief: as §1

Structure (SMILES) | IC90
COc1ccc(-c2cnc(C(=O)Nc3ccc(C(=O)N4CCN(C(=O)[C@@H]5CCN5)CC4)c(Cl)c3)n2C)c(F)c1F [Example 150, N-[4-[4-[(2S)-azetidine-2-carbonyl]piperazine-1-carbonyl]-3-chloro-phenyl]-5-(2,3-difluoro-4-methoxy-phenyl)-1-methyl-imidazole-2-carboxamide formate] | 80 nM
Cn1c(-c2ccc(OC(F)F)c(F)c2F)cnc1C(=O)Nc1ccc(C(=O)N2CCC(C(=O)N[C@H]3CNC[C@H]3F)CC2)c(Cl)c1 [Example 44, 1-[2-chloro-4-[[5-[4-(difluoromethoxy)-2,3-difluoro-phenyl]-1-methyl-imidazole-2-carbonyl]amino]benzoyl]-N-[(3S,4R)-4-fluoropyrrolidin-3-yl]piperidine-4-carboxamide trifluoroacetate] | 30 nM
COc1ccc(-c2cnc(C(=O)Nc3ccc(C(=O)N4CC(NC(=O)C5CCNCC5)C4)c(Cl)c3)n2C)c(F)c1F [Example 187, N-[1-[2-chloro-4-[[5-(2,3-difluoro-4-methoxy-phenyl)-1-methyl-imidazole-2-carbonyl]amino]benzoyl]azetidin-3-yl]piperidine-4-carboxamide formate] | 110 nM
Cn1c(-c2ccc(OC(F)F)c(F)c2F)cnc1C(=O)Nc1ccc(C(=O)N2CCN(C(=O)C[C@@H]3CCCN3)CC2)c(Cl)c1 [Example 224, (S)-N-(3-chloro-4-(4-(2-(pyrrolidin-2-yl)acetyl)piperazine-1-carbonyl)phenyl)-5-(4-(difluoromethoxy)-2,3-difluorophenyl)-1-methyl-1H-imidazole-2-carboxamide formate] | 30 nM
COc1ccc(-c2cnc(C(=O)Nc3ccc(C(=O)N4CCC(NC(=O)CN(C)C)CC4)c(Cl)c3)n2C)c(F)c1F [Example 195, N-[3-chloro-4-[4-[[2-(dimethylamino)acetyl]amino]piperidine-1-carbonyl]phenyl]-5-(2,3-difluoro-4-methoxy-phenyl)-1-methyl-imidazole-2-carboxamide] | 90 nM
COc1ccc(-c2cnc(C(=O)Nc3ccc(C(=O)N4CCN(C(=O)[C@H]5C[C@H](N)C5)CC4)c(Cl)c3)n2C)c(F)c1F [Example 137, N-[4-[4-(3-aminocyclobutanecarbonyl)piperazine-1-carbonyl]-3-chloro-phenyl]-5-(2,3-difluoro-4-methoxy-phenyl)-1-methyl-imidazole-2-carboxamide formate] | 40 nM
COc1ccc(-c2cnc(C(=O)Nc3ccc(C(=O)N4CCN(C(=O)C[C@@H]5CCCN5)CC4)c(Cl)c3)n2C)c(F)c1F [Example 154, N-[3-chloro-4-[4-[2-[(2S)-pyrrolidin-2-yl]acetyl]piperazine-1-carbonyl]phenyl]-5-(2,3-difluoro-4-methoxy-phenyl)-1-methyl-imidazole-2-carboxamide formate] | 70 nM
COc1ccc(-c2cnc(C(=O)Nc3ccc(C(=O)N4CCC(N)CC4)c(Cl)c3)n2C)c(F)c1F [Example 13, N-[4-(4-Aminopiperidine-1-carbonyl)-3-chloro-phenyl]-5-(2,3-difluoro-4-methoxy-phenyl)-1-methyl-imidazole-2-carboxamide formate] | 110 nM
COc1ccc(-c2cnc(C(=O)Nc3ccc(C(=O)N4CCN(C(=O)[C@H]5C[C@@H](N)C5)CC4)c(Cl)c3)n2C)c(F)c1F [Example 140, N-[4-[4-(3-aminocyclobutanecarbonyl)piperazine-1-carbonyl]-3-chloro-phenyl]-5-(2,3-difluoro-4-methoxy-phenyl)-1-methyl-imidazole-2-carboxamide formate] | 50 nM

Same assay, conditions: Acinetobacter baumannii, ATCC17961, read-out: ATCC 17961 IC90

Structure (SMILES) | IC90
COc1ccc(-c2cnc(C(=O)Nc3ccc(C(=O)N4CCN(C(=O)CN5CCCC5)CC4)c(Cl)c3)n2C)c(F)c1F [Example 293, N-[3-Chloro-4-[4-(2-pyrrolidin-1-ylacetyl)piperazine-1-carbonyl]phenyl]-5-(2,3-difluoro-4-methoxy-phenyl)-1-methyl-imidazole-2-carboxamide formate] | 30 nM
